# Measured values from US6734163B2, “Compositions and methods for inhibiting cellular proliferation” (EntreMed, Inc., priority 1997, dated 2004).
# Entries after “also recorded” stand apart in the source; their conditions may differ. Like-named read-outs stand apart in the source and are kept apart here.
# Tested on: human umbilical vein endothelial (HUVE) cells
# Test: bFGF-induced proliferation of HUVE cells (uridine incorporation)
# Assay type: cell-based
# Details: for antiproliferative activity, plasma TFPI compared with HepG2 TFPI: HUVE cell proliferation assay, FIG. 4; for Effect on Proliferation: bFGF 10 ng/ml, 48 hours, HUVE cells
# Method: Proliferation assays familiar to those skilled in the art using human umbilical vein endothelial (HUVE) cells were used to determine the effect of TFPI on bFGF-induced proliferation of human umbilical vein endothelial cells.
# The proliferation assay involved the routine culturing of human umbilical vein endothelial (HUVE) cells to confluency in EGM media. The cells were trypsinized and plated in a 96-well plate at 5000 cells per well per 100 μL EBM media. The cells were allowed to adhere to the plate for at least 2 hours. Next, bFGF at 10 ng/ml and TFPI at various concentrations were added to the wells. The cells were cultured for 48 hours after which cell proliferation was determined using a standard uridine incorporation method.
# Proliferation assays using HUVE cells, as described in Example 1, were used to determine the effect of heparin on TFPI inhibition of bFGF-induced proliferation. The purpose of this study was to determine whether heparin was able to neutralize the antiproliferative activity of TFPI.
# TFPI was pre-incubated with equimolar concentrations of heparin and with concentrations of heparin that were five-fold in excess of the concentration of TFPI. The results are summarized below and are presented graphically in FIGS. 5a and 5b.
# Cell proliferation assays, as described in Example 1, were conducted to determine the relative potency of native TFPI versus recombinant TFPI.
# Cell proliferation assays, as described in Example 1, were conducted using full length recombinant TFPI, Platelet Factor 4 (PF-4), and recombinant Kringle 1-3 of Angiostatin™ peptide. Both PF-4 and Angiostatin™ peptide are known endogenous inhibitors of angiogenesis. PF-4 is a protein involved in the blood coagulation cascade and is referenced as an inhibitor of angiogenesis by Maione, T. et al. in the article “Inhibition of Angiogenesis by Recombinant Human Platelet Factor-4 and Related Peptides” Science 247:77 (1990). Angiostatin is a fragment of plasminogen and its inhibitory effect on angiogenesis is described by Cao, Y. et al. in the article “Kringle Domains of Human Angiostatin” J. Biol. Chem. 271:1 (1996).
# PF-4 and TFPI were tested for inhibition of human umbilical vein endothelial cell (HUVEC) proliferation. Angiostatin™ peptide was tested for the inhibition of bovine capillary endothelial (BCE) proliferation.
# Cell proliferation assays, as described above in Example 1, were conducted using fragments of recombinant TFPI containing the following domains: Kunitz-1, Kunitz-2, or Kunitz-3.
# [1] = Example 3, native versus recombinant TFPI, read-out: Fifty percent inhibition of the bFGF-induced proliferation of HUVE cells
Substance,"antiproliferative activity, plasma TFPI compared with HepG2 TFPI",Effect on Proliferation,IC50 [1] [nM],further results
"PF-4: Platelet Factor 4, protein of the blood coagulation cascade, known endogenous inhibitor of angiogenesis [reference compound]",,,,"IC50 (Example 4, read-out: concentration required for 50% inhibition of HUVE cell proliferation): 1250 nM"
Purified From HepG2 cells: TFPI purified from HepG2 cells containing full length and carboxyl-terminal lacking molecules,comparable activities,Inhibition of Proliferation,,
"Purified From Human Plasma: full length, fully glycosylated TFPI (molecular weight 43,000) purified from human plasma",comparable activities,Inhibition of Proliferation,75,
"Recombinant, Full Length: full length, partially glycosylated TFPI (molecular weight 35,000) produced recombinantly",,Inhibition of Proliferation,150,"potency relative to recombinant PF-4 (HUVE cell proliferation, 50% inhibition compared): approximately ten times more potent; IC50 (HUVEC proliferation, Example 4 table, read-out: Concentration for 50% Inhibition): ~125 nM; activity relative to recombinant Kringle 1-3 of angiostatin (TFPI on HUVE cells versus Kringle 1-3 on BCE cells): more active"
"TFPI: tissue factor pathway inhibitor, source not specified in the heparin experiment (SEQ ID No. 1)",,,,Antiproliferative Activity of TFPI (effect of heparin) (TFPI pre-incubated with equimolar heparin): did not lose its antiproliferative activity; also recorded: No Effect; Antiproliferative Activity of TFPI (effect of heparin) (TFPI pre-incubated with heparin five-fold in excess of TFPI): did not lose its antiproliferative activity; also recorded: No Effect
